Experimental data as given in ChEMBL document CHEMBL1151992, “Arenamides A-C, cytotoxic NFkappaB inhibitors from the marine actinomycete Salinispora arenicola” (J Nat Prod, 2009).
≈ marks a conversion by molar mass, not a printed value. Calls of active or inactive are those of the source. The calls are words filed in the database; no cut-off is given here.

Columns and labels:
[1] = test system: Enterococcus faecium; test: Antimicrobial activity against vancomycin-resistant Enterococcus faecium; type: functional, organism-based
[2] = test system: Staphylococcus aureus; test: Antimicrobial activity against methicillin-resistant Staphylococcus aureus; type: functional, organism-based
[3] = test system: Candida albicans; test: Antimicrobial activity against amphotericin-resistant Candida albicans; type: functional, organism-based
[4] = test system: RAW264.7; test: Antiinflammatory activity in mouse RAW264.7 cells assessed as inhibition of LPS-stimulated nitric oxide production at 3 to 10 uM treated 30 mins prior to LPS challenge measured after 24 hrs by Griess reagent method; type: functional; parameters: scale not given: the % may be the effect or the level left
[5] = test system: RAW264.7; test: Antiinflammatory activity in mouse RAW264.7 cells assessed as inhibition of LPS-stimulated PGE2 production at 3 to 10 uM treated 30 mins prior to LPS challenge measured after 24 hrs by ELISA; type: functional; parameters: scale not given: the % may be the effect or the level left
[6] = test system: RAW264.7; test: Antiinflammatory activity in mouse RAW264.7 cells assessed as inhibition of LPS-stimulated nitric oxide production treated 30 mins prior to LPS challenge measured after 24 hrs by Griess reagent method; type: functional, cell-based
[7] = test system: HCT-116; test: Cytotoxicity against human HCT116 cells; type: functional, cell-based
[8] = Inhibition of TNF-induced NF-kappaB activation transfected in HEK293 cells by luciferase reporter gene assay; type: cell-based
[9] = test system: RAW264.7; test: Cytotoxicity against mouse RAW264.7 cells at 3 to 10 uM by sulforhodamine B assay; type: cell-based; conditions: raw264.7, 10 µM

Compound	Activity [1]	Activity [2]	Activity [3]	Activity [4]	Activity [5]	Activity [6]	IC50 [7]	IC50 [8]	Activity [9]
CCCCCC[C@H](C)[C@@H]1CC(=O)NCC(=O)N[C@@H](C(C)C)C(=O)N[C@@H](CC(C)C)C(=O)N[C@@H](C)C(=O)N[C@@H](CCSC)C(=O)O1	inactive	inactive	inactive						
CCCCCC[C@@H](C)[C@H](O)CC(=O)NCC(=O)N[C@H](C(=O)C[C@@H](CC(C)C)C(=O)N[C@@H](C)C(=O)N[C@@H](Cc1ccccc1)C(=O)OC)C(C)C	inactive	inactive	inactive						
CCCCCC[C@H](C)[C@@H]1CC(=O)NCC(=O)N[C@@H](C(C)C)C(=O)N[C@@H](CC(C)C)C(=O)N[C@@H](C)C(=O)N[C@@H](Cc2ccccc2)C(=O)O1 [ARENAMIDE A]	inactive	inactive	inactive	35%	50%	Dose-dependent effect	13.2 µg/mL (≈ 19.6 µM)	3700 nM	Non-toxic
CCCC[C@H](C)[C@@H]1CC(=O)NCC(=O)N[C@@H](C(C)C)C(=O)N[C@@H](CC(C)C)C(=O)N[C@@H](C)C(=O)N[C@@H](Cc2ccccc2)C(=O)O1 [ARENAMIDE B]	inactive	inactive	inactive	35%	50%	Dose-dependent effect	19.2 µg/mL (≈ 29.8 µM)	1700 nM	Non-toxic
